According to PMC5573830 (The Journal of Veterinary Medical Science, 2017):

Biological target: rTgAPN2 (recombinant aminopeptidase N2, TgAPN2) (Toxoplasma gondii, UniProt A0A7J6K0L4)
Experiment: residual H-Ala-MCA hydrolysis, fluorescence
Type: biochemical
Conditions: 30 min pre-incubation at 37 °C, substrate H-Ala-MCA

## CC(C)C[C@H](NC(=O)[C@@H](O)[C@H](N)Cc1ccccc1)C(=O)O [bestatin]
  residual enzyme activity (%): The activity of rTgAPN2 was reduced in a dose-dependent manner in the presence of bestatin or amastatin
